≈ marks a conversion by molar mass, not a printed value. Read-outs that look alike come from different tables or passages of the source.
Experiments:
[1] = tested on: polymyxin-resistant mcr-1 positive Enterobacteriaceae; test: In vitro antibacterial effect on polymyxin-resistant mcr-1 positive Enterobacteriaceae, agar dilution MIC (Experiment 2); assay type: cell-based, Escherichia coli; conditions: for MIC50 / MIC90: Escherichia coli; for MIC50: read-out: MIC50 Value, polymyxin-resistant mcr-1 positive Escherichia coli, agar dilution; for MIC90: read-out: MIC90 Value, polymyxin-resistant mcr-1 positive Escherichia coli, agar dilution; for MIC90 Value / MIC50 Value: polymyxin-resistant mcr-1 positive Escherichia coli, agar dilution
Method: Tested samples: the compounds of the present invention, prepared according to the methods of the preparation examples;
Polymyxin E sulphate, Ampicillin, Cefotaxime, Gentamicin, Ciprofloxacin, Tetracycline, and Bactrim were all commercial products, the following experiments were carried out according to the content of an effective ingredient in each commercial product.
Tested strains: Escherichia coli carrying mcr-1 gene isolated from animals and Escherichia coli ATCC25922, a quality control strain, were provided by South China Agricultural University.
With reference to the agar dilution method in CLSI, the MIC value of the tested drugs to the polymyxin resistant mcr-1 positive Escherichia coli were determined.
Preparation of drug-containing agar plates: a drug solution with the highest concentration was prepared for each compound; the drug solution with the highest concentration was subjected to the double dilution; for each of dilution gradient, 1 mL (20×drug working solution) of the drug solution was added to 19 mL MH agar at 45-50° C.; immediately after addition, the agar and the drug solution were uniformly mixed to give a drug-containing agar plate with final concentrations of […], and the plate was solidified for later use; and in the meanwhile, a growth control group was arranged.
Inoculum preparation and culture: the strains stored at −80° C. were rejuvenated and formulated with broth so that the turbidity reached or exceeded 0.5 #McFarland unit; a 96-well plate was used as the inoculation tank, and the bacterial solution was diluted with sodium chloride injection so that the content of bacteria inoculated on the agar was 10^4 CFU/point. A multi-point inoculation instrument was used to inoculate the bacterial solution to the surface of the labeled drug-containing agar. After the water in the inoculation point was completely absorbed by the agar, the plate was placed upside down in a 37° C. constant-temperature incubator and incubated for 16-20 hours.

Escherichia coli = test: In vitro antibacterial activity, agar dilution MIC (Experiment 1); assay type: cell-based; conditions: agar dilution; for MIC50: read-out: MIC50; for MIC90: read-out: MIC90
Method: (§1) Tested strains: all the clinically separated strains below were purchased from public facilities.
(§2) Escherichia coli ATCC25922, Pseudomonas aeruginosa ATCC27853, Klebsiella pneumoniae ATCC700603, and the like.
(§3) Tested Samples: Imipenem, Ceftazidime: Commercial Products, the Following Experiments were Carried Out According to the Content of an Effective Ingredient in Each Commercial Product;
(§4) The compounds of the present invention, their chemical names, and preparation methods are shown in the preparation example of each compound.
(§5) Experiment method: Agar dilution method, refer to National Committee for Clinical Laboratory Standards. 2006. Methods for Dilution Antimicrobial Susceptibility Tests for Bacteria That Grow Aerobically; Approved Standard—Seventh Edition M7-A7, Vol 26, No. 2, 2006, to determine the MIC of the compound. MIC represents the minimum inhibitory concentration.

Pseudomonas aeruginosa = test: as above; assay type: cell-based
Method: as §1, §2, §3, §4, §5

[2] = Pharmacokinetics (PK) determination in SD rats (Experiment 4); assay type: in vivo; conditions: plasma; for AUC(0-t) / AUC(0-inf): Sprague-Dawley (SD), rat, iv, 2 mg/kg; for AUC(0-inf): read-out: AUCINF_obs
Method: The compound of the present invention, self-prepared and dissolved in a suitable solvent.
Instrument and equipment: API4000 LC-MS/MS
Chromatographic column: Waters XBridge C18(2.1×50 mm, […])
Rat blood collection: Animals were fixed. The animal's tail was heated with a water bathtub 10 minutes before each time point. About 200 μL of the blood was collected through the caudal vein. After the blood collection, the blood was placed in an anticoagulation tube containing heparin sodium. The blood samples were centrifuged at 8000 rpm for 6 minutes at 4° C. to obtain plasma samples. The plasma must be prepared within 30 minutes after the blood collection. The plasma was stored in a refrigerator at −80° C. before the test.
(1) Test samples were removed from the refrigerator (−80° C.), naturally thawed at room temperature, and then vortexed for 5 minutes;
(2) 20 μL sample was precisely pipetted to a 1.5 mL centrifuge tube;
(3) 200 μL of the internal standard solution was added;
(4) The mixture was vortexed for 5 minutes and centrifuged for 5 minutes (12000 revolutions per minute);
(5) 100 μL of the supernate was precisely pipetted, 100 μL of water was added, the mixture was vortexed for 5 minutes, and the sample was sent to LC-MS/MS for analysis.
The results of the concentrations of the test samples (plasma samples) were output with Analyst 1.6.1 of AB Corporation. The meaning value, the standard deviation, the coefficient of variation, and other parameters (not necessary to calculate the parameter that can be directly output from Analyst 1.6.1) were calculated with Microsoft Excel, and the PK parameter is calculated with Pharsight Phoenix 6.1 software.

[3] = agar dilution (Table 3), read-out: MIC90
[4] = agar dilution (Table 3), read-out: MIC50

Molecule | MIC50 [1] | MIC90 [1] | MIC90 (Pseudomonas aeruginosa; [3]) | Cl_obs ([2]; IV 2 mg/kg) | Vz_obs ([2]; IV 2 mg/kg) | t1/2z ([2]; IV 2 mg/kg) | λ_z ([2]; IV 2 mg/kg) | AUC(0-t) [2] | AUC(0-inf) [2] | MIC50 (Pseudomonas aeruginosa; [4]) | other results
CC1(C)S[C@@H]2[C@H](NC(=O)[C@H](N)c3ccccc3)C(=O)N2[C@H]1C(=O)O [Ampicillin] | > 128 µg/mL | > 128 µg/mL |  |  |  |  |  |  |  |  | 
CO/N=C(\C(=O)N[C@@H]1C(=O)N2C(C(=O)O)=C(COC(C)=O)CS[C@H]12)c1csc(N)n1 [Cefotaxime] | 2 µg/mL (≈ 4.39 µM) | 128 µg/mL (≈ 281 µM) |  |  |  |  |  |  |  |  | 
O=C(O)c1cn(C2CC2)c2cc(N3CCNCC3)c(F)cc2c1=O [Ciprofloxacin] | 4 µg/mL (≈ 12.1 µM) | 32 µg/mL (≈ 96.6 µM) |  |  |  |  |  |  |  |  | 
CNC(=O)C(C(=O)NO)N(C)C(=O)c1ccc(C#CC#Cc2ccc(CO)o2)cc1 (stereo not drawn) [Compound 5, N-methyl-N-(3-methylamino-1-(hydroxyamino)-1,3-dioxopropan-2-yl)-4-((5-(hydroxymethyl)furan-2-yl)buta-1,3-diynyl)benzamide] |  | 0.5 µg/mL (≈ 1.22 µM) | 1 µg/mL (≈ 2.44 µM) | 10.3 ± 1.3 mL/min/kg | 0.63 ± 0.02 L/kg | 42.6 ± 6.6 min | 0.99 ± 0.15 h⁻¹ | 8110 ± 1050 ng·h/mL | 8150 ± 1040 ng·h/mL |  | MIC50 (Escherichia coli): 2 µg/mL (≈ 4.89 µM); MIC90 (Escherichia coli): 4 µg/mL (≈ 9.77 µM); MIC50 (Pseudomonas aeruginosa): 0.125 µg/mL (≈ 0.305 µM); MIC90 Value [1]: 1 µg/mL (≈ 2.44 µM)
CNCc1ccc(C#CC#Cc2ccc(C(=O)N[C@H](C(=O)NO)[C@@H](C)O)cc2)o1 [Compound 15, N-((2S,3R)-3-hydroxy-1-(hydroxyamino)-1-oxobutan-2-yl)-4-((5-((methylamino)methyl)furan-2-yl)buta-1,3-diynyl)benzamide] |  |  | 2 µg/mL (≈ 5.06 µM) | 25.2 ± 4.5 mL/min/kg | 1.57 ± 0.28 L/kg | 44.4 ± 13.2 min | 0.99 ± 0.29 h⁻¹ | 1330 ± 108 ng·h/mL | 1350 ± 222 ng·h/mL | 0.5 µg/mL (≈ 1.26 µM) | 
Cc1cc(C#CC#Cc2ccc(C(=O)N[C@H](C(=O)NO)[C@@H](C)O)cc2)oc1CO [Compound 16, N-((2S,3R)-3-hydroxy-1-(hydroxyamino)-1-oxobutan-2-yl)-4-((5-(hydroxymethyl)-4-methylfuran-2-yl)buta-1,3-diynyl)benzamide] |  |  | 2 µg/mL (≈ 5.05 µM) | 12 ± 0.67 mL/min/kg | 0.47 ± 0.16 L/kg | 27 ± 8.4 min | 1.67 ± 0.58 h⁻¹ | 2780 ± 130 ng·h/mL | 2790 ± 136 ng·h/mL | 0.5 µg/mL (≈ 1.26 µM) | 
C[C@@H](O)[C@H](NC(=O)c1ccc(C#CC#Cc2ccco2)cc1)C(=O)NO [Compound 20] |  |  |  | 107 ± 16 mL/min/kg | 3.77 ± 0.53 L/kg | 24.6 ± 0.6 min | 1.70 ± 0.03 h⁻¹ |  |  |  | MIC50 (Pseudomonas aeruginosa; agar dilution (Table 3)): 0.25 µg/mL (≈ 0.71 µM); MIC90 (Pseudomonas aeruginosa; agar dilution (Table 3)): 1 µg/mL (≈ 2.84 µM); AUCINF_obs ([2]; IV 2 mg/kg): 791 ± 117 ng·h/mL; AUClast ([2]; IV 2 mg/kg): 778 ± 116 ng·h/mL
C[C@@H](O)[C@H](NC(=O)c1ccc(C#CC#Cc2ccc(COCCOCCO)o2)cc1)C(=O)NO [Compound 21, N-((2S,3R)-3-hydroxy-1-(hydroxyamino)-1-oxobutan-2-yl)-4-((5-((2-(2-hydroxyethoxy)ethoxy)methyl)furan-2-yl)buta-1,3-diynyl)benzamide] |  |  | 4 µg/mL (≈ 8.5 µM) | 24.2 ± 4.83 mL/min/kg | 0.33 ± 0.07 L/kg | 9.6 ± 0.6 min | 4.38 ± 0.25 h⁻¹ | 1400 ± 256 ng·h/mL | 1420 ± 255 ng·h/mL | 1 µg/mL (≈ 2.13 µM) | 
C[C@@H](O)[C@H](NC(=O)c1ccc(C#CC#Cc2ccc(CNCCCN3CCOCC3)o2)cc1)C(=O)NO [Compound 22, N-((2S,3R)-3-hydroxy-1-(hydroxyamino)-1-oxobutan-2-yl)-4-((5-((3-morpholinopropylamino)methyl)furan-2-yl)buta-1,3-diynyl)benzamide] |  |  | > 16 µg/mL |  |  |  |  |  |  | 4 µg/mL (≈ 7.87 µM) | MIC50 (Escherichia coli): 0.5 µg/mL (≈ 0.983 µM); MIC90 (Escherichia coli): 2 µg/mL (≈ 3.93 µM)
Cn1nc(CO)cc1-c1ccc(C#Cc2ccc(C(=O)N[C@H](C(=O)NO)C(C)(C)N)cc2)cc1 [Compound 37, (S)—N-(3-amino-1-(hydroxyamino)-3-methyl-1-oxobutan-2-yl)-4-((4-(3-(hydroxymethyl)-1-methyl-1H-pyrazol-5-yl)phenyl)ethynyl)benzamide] |  |  |  | 78.5 ± 5.5 mL/min/kg | 17.6 ± 4.22 L/kg | 158 ± 45.6 min | 0.28 ± 0.08 h⁻¹ | 402 ± 21.6 ng·h/mL | 426 ± 28.5 ng·h/mL | 1 µg/mL (≈ 2.17 µM) | 
C[C@@H](O)[C@H](NC(=O)c1ccc(C#CC#Cc2ccc(CNCCOCCO)s2)cc1)C(=O)NO [Compound 42, N-((2S,3R)-3-hydroxy-1-(hydroxyamino)-1-oxobutan-2-yl)-4-((5-((2-(2-hydroxyethoxy)ethylamino)methyl)thienyl-2-yl)buta-1,3-diynyl)benzamide] |  |  | 4 µg/mL (≈ 8.24 µM) | 84.3 ± 9.17 mL/min/kg | 2.16 ± 0.30 L/kg | 18 ± 0.6 min | 2.35 ± 0.07 h⁻¹ | 396 ± 41 ng·h/mL | 398 ± 41 ng·h/mL | 0.5 µg/mL (≈ 1.03 µM) | 
C[C@@H](O)[C@H](NC(=O)c1ccc(C#CC#Cc2ccc(CN3CCOCC3)s2)cc1)C(=O)NO [Compound 43, N-((2S,3R)-3-hydroxy-1-(hydroxyamino)-1-oxobutan-2-yl)-4-((5-(morpholinomethyl)thienyl-2-yl)buta-1,3-diynyl)benzamide] |  |  | 4 µg/mL (≈ 8.56 µM) | 36.5 ± 3.67 mL/min/kg | 0.88 ± 0.07 L/kg | 16.8 ± 0.6 min | 2.48 ± 0.06 h⁻¹ | 919 ± 100 ng·h/mL | 921 ± 100 ng·h/mL | 1 µg/mL (≈ 2.14 µM) | 
C[C@@H](O)[C@H]1C(=O)N2C(C(=O)O)=C(SCCN=CN)C[C@H]12 [Imipenem, reference compound] | 0.125 µg/mL (≈ 0.418 µM) | 4 µg/mL (≈ 13.4 µM) | 16 µg/mL (≈ 53.4 µM) |  |  |  |  |  |  | 2 µg/mL (≈ 6.68 µM) | 
CN(C)[C@@H]1C(O)=C(C(N)=O)C(=O)[C@@]2(O)C(O)=C3C(=O)c4c(O)cccc4[C@@](C)(O)[C@H]3C[C@@H]12 [Tetracycline] | 32 µg/mL (≈ 72 µM) | 64 µg/mL (≈ 144 µM) |  |  |  |  |  |  |  |  | 
Gentamicin |  |  |  |  |  |  |  |  |  |  | MIC50 Value [1]: 4 µg/mL; MIC90 Value [1]: 64 µg/mL
Polymyxin E sulphate |  |  |  |  |  |  |  |  |  |  | MIC50 Value [1]: 16 µg/mL; MIC90 Value [1]: 32 µg/mL

From patent US11498909B2, “Compound acting as antibiotics” (KBP BIOSCIENCES CO., LTD., priority 2018, dated 2022)
